Assay results taken from patent publication US20050208036A1, “Methods for treating or preventing GVHD” (University of North Carolina at Chapel Hill, priority 2003, published 2005).
“And” between values parts separate entries of the source, which are not always exact repeats. Equal values may be shown once.

What was measured:
NEMO = NEMO (Homo sapiens, UniProt Q9Y6K9); experiment: NBD mutants: ability to bind to NEMO; format: binding
[1] = system: donor CD4+ T cells from C57BL/6 mice with irradiated bm12 splenocytes; experiment: Mixed lymphocyte reaction (MLR): proliferative response of T cells to alloantigen, 3H-thymidine incorporation; format: cell-based, mouse
Description: (§1) A bulk MLR was prepared by combining donor CD4^+ T cells obtained from C57BL/6 (H-2^b) mice (National Institutes of Health, Bethesda, Md., U.S.A.) in a 1:1 ratio with T cell-depleted, irradiated splenocytes obtained from bm12 (H-2^bm12), MHC class II disparate mice (The Jackson Laboratory, Bar Harbor, Me., U.S.A.). An anti-CD40L monoclonal antibody (hybridoma MR1, hamster IgG), obtained by culturing the hybridoma in 10% FBS/DMEM in an Accusyst Jr. hollow fiber bioreactor (Cellex Biosciences, Minneapolis, Minn., U.S.A.), was added to the bulk MLR culture and the cells were incubated for 7-10 days. Proliferative responses of the T cells to alloantigen were determined on days 2, 4, 5, 6, and 7 by measuring ^3H-thymidine incorporation into newly synthesized DNA. The antibody removed from the cultures by washing three times with 2% FBS/PBS, and aliquots of the cells (0.3×10^5, 10^5, and 3×10^5 cells) were administered in 0.5 mL DMEM by tail vein injection to bm12 mice subjected to a sublethal dose (6.0 Gy) of total body irradiation. Control irradiated mice received the same amounts of cells from MLR that had not been exposed to anti-CD40L. The mice were monitored for GVHD lethality, weight changes, and packed cell volume (PCV). Cells remaining from the primary MLR were mixed with fresh bm12 splenocytes for a secondary MLR, and proliferative responses to allogen were measured on days 1 through 5. Aliquots of the secondary MLR cultures were subsequently administered to irradiated bm12 mice.
An MLR culture was prepared consisting of a 1:1 ratio of CD4+ T cells obtained from C57BL/6 mice and T cell-depleted, irradiated MHC class II-disparate stimulators obtained from bm12 mice. PS1145, a potent inhibitor of IκB kinase and thus NF-κB activation, was added to the MLR culture at concentrations of 0.2 μM, 0.6 μM, 1 μM, 2 μM, 6 μM, and 10 μM. Control MLR cultures were left untreated or were treated with DMSO. […] This hyporesponsiveness persisted after washing of the T cells and re-exposure to alloantigen. As with anti-CD40L treated MLR, alloantigen hyporesponsiveness was reversed by addition of 50 U/mL exogenous IL-2 (FIG. 7).
(§2) The tolerance induced by PS1145 was specific to alloantigen, as responses to non-specific mitogens remained largely intact.
CD4^+ CD25^+ cells were required in cultures tolerized by anti-CD40L. To determine whether CD25^+ T cells, which express the high-affinity IL-2 receptor a chain (IL-2Rα), were required for PS 1145 induction of tolerance, CD25^+-depleted T cells were used in primary and secondary MLR. […] Similarly, CD4^+ CD25^+ T cells were not required for tolerance induction by PS1145 in secondary cultures.

bm12 mice = experiment: GVHD lethality after transfer of MLR cells into sublethally irradiated MHC class II disparate recipients; format: in vivo, mouse
Description: as §1
CD4^+ T cells that were allowed to recover from a vehicle-treated 7 day MLR were uniformly fatal upon adoptive transfer into sublethally irradiated MHC class-II disparate recipients, whereas T cells subjected to ex vivo PS1145 treatment were lethal to only 22% of recipients. Mice were intravenously injected with either 10^5 naïve T cells, 10^5 cells from 7 day control MLR or 10^5 cells from MLR exposed to 6 μM or 10 μM PS1145 for 7 days. […] Thus, the NF-κB pathway is a critical regulator of T cell responses, and provides an ex vivo approach to inducing alloantigen-specific tolerance as a means of preventing GVHD.

[2] = system: alloreactive transgenic T cells; experiment: T cell apoptosis in MLR of alloreactive and non-alloreactive transgenic T cells, Annexin V binding; format: cell-based; details: 10 μM, 1:1 alloreactive and non-alloreactive transgenic T cells
Excerpt: as §2

TNF-α [3] = experiment: LPS-induced TNF-α expression in mice, ELISA; format: in vivo, B6 and BALB/c mice; details: 1 μg/kg LPS; 10, 25 or 50 mg/kg oral; 24-72 hours post-treatment; vs controls
Description: (§3) B6 and BALB/c mice were given 1 μg/kg of LPS, after which they orally received either control methylcellulose or PS1145 in methylcellulose. Animals were evaluated for expression of the cytokine TNF-α and the chemokine MIP-1α (CCL3) at 24-72 hours post-treatment, as assessed by ELISA.

MIP-1α (CCL3) [4] = experiment: LPS-induced MIP-1α (CCL3) expression in mice, ELISA; format: in vivo, B6 and BALB/c mice; details: 1 μg/kg LPS; 10, 25 or 50 mg/kg oral; 24-72 hours post-treatment; vs controls
Description: as §3

B6D2 recipient mice = experiment: Murine stem cell transplant GVHD model, survival; format: in vivo, mouse
Description: A murine stem cell transplant model was developed in which bone marrow was removed from B6 (H2^b) donors. The marrow was depleted of T cells by incubation with an anti-Thy 1.2 monoclonal antibody coupled to magnetic beads, followed by removal of T cells that bound the antibody using a magnetic column. Thy 1.2^+ T cells were isolated from splenocytes using a similar approach and were added back to the bone marrow. Animals received between 1-5×10^6 T cells and 3×10^6 bone marrow cells after lethal irradiation. The T cell-depleted marrow was transplanted into B6D2H2^bxd recipient mice that had been subjected to a lethal dose of irradiation (8.5 Gy). Recipient mice were divided into six groups, three of which received 1 mg PS1145 starting on day −2, day 0, or day 6 relative to transplant. The other three groups received methylcellulose as a control, starting on day −2, 0, or 6. PS1145 suspended in methylcellulose or methylcellulose alone was administered daily by gavage, through day 14. Mice were evaluated every three days for weight loss, GVHD, and outcome. […] Treatment with PS1145 that started on day 6 was correlated with an earlier death (all mice were dead by about day 12) as compared to treatment that started on day 0 (all mice were dead by about day 28). All mice in the methylcellulose control group were dead by day 20.
In a similar experiment, recipient mice were subjected to 1125 cGy of irradiation and then treated with oral doses of 5 mg/kg methylcellulose or PS1145. In this case, however, all animals in both groups were dead by about day 42 post-transplant (FIG. 12). […] Thus, the use of PS1145 to ameliorate GVHD via an oral route was not effective using very heavy doses of irradiation.
Experiments also were performed in which 5 mg/kg PS1145 or methylcellulose was given intraperitoneally (i.p.) to mice starting on day −2 and ending on day 14 post-transplantation. B6D2 mice that had received 850 cGy of irradiation were injected with 3×10^6 bone marrow cells from B6 donors and 5×10^6 selected B6 T cells.

TNF-α [5] = experiment: TNF-α levels in colon and small intestine after transplant, cytokine bead assay; format: in vivo, mouse; details: 5 mg/kg i.p. on days −1 and −2, days 3-18, vs untreated
Description: (§4) Expression of TNF-α and MIP-1α (CCL3) was evaluated in mice treated i.p. with PS1145 and subjected to transplantation of T cell-depleted bone marrow with Thy 1-selected splenocytes as a source of T cells. Mice in the test group received 5 mg/kg PS1145 on days −1 and −2 relative to transplant, while control animals were untreated. Animals were sacrificed from days 3-18 for assessment of TNF-α levels in the colon and small intestine and MIP-1α levels in the liver. A cytokine bead assay was used to measure levels of these factors. […] While TNF-α levels in control animals increased from day 3 to day 18, the level was relatively constant in animals exposed to PS1145.

MIP-1α (CCL3) [6] = experiment: MIP-1α levels in liver after transplant, cytokine bead assay; format: in vivo, mouse; details: 5 mg/kg i.p. on days −1 and −2, days 3-18, vs untreated
Description: as §4

[7] = 5 mg/kg i.p. day −2 to day 14, 850 cGy
[8] = oral 5 mg/kg, 1125 cGy irradiation

Sequence of NEMO (Q9Y6K9 whole entry, species assumed): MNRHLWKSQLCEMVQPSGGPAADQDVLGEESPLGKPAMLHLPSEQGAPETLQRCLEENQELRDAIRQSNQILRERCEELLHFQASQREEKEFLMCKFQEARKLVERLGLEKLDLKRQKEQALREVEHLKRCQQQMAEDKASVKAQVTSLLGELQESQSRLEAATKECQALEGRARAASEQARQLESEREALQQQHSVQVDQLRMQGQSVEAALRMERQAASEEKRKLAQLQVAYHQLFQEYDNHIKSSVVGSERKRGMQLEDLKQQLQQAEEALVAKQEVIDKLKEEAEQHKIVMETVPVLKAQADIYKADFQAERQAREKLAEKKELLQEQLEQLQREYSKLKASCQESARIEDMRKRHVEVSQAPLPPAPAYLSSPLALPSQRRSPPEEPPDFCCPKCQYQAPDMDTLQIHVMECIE

In the case of “LDWAWL (Hexapeptide variant of human IKK-beta NBD (SEQ ID NO2) having A in the 4th position.) [NBD mutant]”, the “Binds to NEMO” value (NEMO) is reported as “Yes”.

“LEWSWL (Hexapeptide variant of human IKK-beta NBD (SEQ ID NO2) having E in the 2nd position.) [NBD mutant]” was tested, and the “Binds to NEMO” value (NEMO) was “Yes”.

In the case of “LDYSWL (Hexapeptide variant of human IKK-beta NBD (SEQ ID NO2) having Y in the 3rd position.) [NBD mutant]”, the “Binds to NEMO” value (NEMO) is reported as “Yes”.

“LAWSWL (Hexapeptide variant of human IKK-beta NBD (SEQ ID NO2) having A in the 2nd position.) [NBD mutant]” was tested, and the “Binds to NEMO” value (NEMO) was “No”.

With “LDWSWA (Hexapeptide variant of human IKK-beta NBD (SEQ ID NO2) having A in the 6th position.) [NBD mutant]” the “Binds to NEMO” value (NEMO) was “Yes”.

With `O=C(Nc1cc(Cl)cc2c1[nH]c1cnccc12)c1cccnc1` [PS1145] the “response on re-exposure to allogeneic APC” value ([1]; 10 μM, re-exposed to allogeneic APC) was “remained hyporesponsive”, the “proliferation after secondary stimulus of CD3+ and CD28+ cells” value ([1]; 10 μM, secondary stimulus CD3+ and CD28+ cells) was “comparable to controls” and the “alloantigen hyporesponsiveness with exogenous IL-2” value ([1]; 50 U/mL exogenous IL-2 added) was “reversed”. The “T cell proliferation in response to alloantigen” value ([1]; MLR treated with 6 μM and 10 μM) was “reduced level of proliferation”, the “hyporesponsiveness after washing of the T cells and re-exposure to alloantigen” value ([1]; after washing, re-exposure to alloantigen) was “persisted” and the “Long term survival (>90 days)” value (bm12 mice; 10^5 cells i.v. from MLR exposed to 6 μM for 7 days) was “five of eight and 5/8”. For the same compound, the “Long term survival (>90 days)” value (bm12 mice; 10^5 cells i.v. from MLR exposed to 10 μM for 7 days) was “nine of ten and 9/10”, the “recipients to which treated T cells were lethal” value (bm12 mice; T cells treated ex vivo, adoptive transfer) was 22% and the long-term survival rate (bm12 mice; recipients of donor T cells treated ex vivo) was 78%. The “rate of T cell apoptosis” value [2] was “increased the rate of T cell apoptosis selectively in alloreactive cells”, the TNF-α expression (TNF-α [3]) was “markedly reduced” and the “MIP-1α (CCL3) expression” value (MIP-1α (CCL3) [4]) was “markedly reduced”. The “day by which all mice were dead” value (B6D2 recipient mice; 1 mg daily by gavage from day 0 through day 14, 8.5 Gy) was about 28 days, the “day by which all mice were dead” value (B6D2 recipient mice; 1 mg daily by gavage from day 6 through day 14, 8.5 Gy) was about 12 days and the “mice surviving at least through day 50” value (B6D2 recipient mice; 1 mg daily by gavage from day −2 through day 14, 8.5 Gy) was “about 20%”. For the same compound, the “Survival Day 30” value (B6D2 recipient mice; [7]) was 7/10, the “Survival Day 60” value (B6D2 recipient mice; [7]) was 5/10 and the “survival of B6D2 mice” value (B6D2 recipient mice; [7]) was 50%. The “day post-transplant by which all animals were dead” value (B6D2 recipient mice; [8]) was about 42 days, the “survival time compared with methylcellulose group” value (B6D2 recipient mice; [8]) was “little difference” and the “TNF-α expression in colon and small intestine” value (TNF-α [5]) was “significantly decreased”. For the same compound, the “MIP-1α levels in the liver” value (MIP-1α (CCL3) [6]) was “Analogous results”.

For “LDWSAL (Hexapeptide variant of human IKK-beta NBD (SEQ ID NO2) having A in the 5th position.) [NBD mutant]”, the “Binds to NEMO” value (NEMO) was “No”.

For “ADWSWL (Hexapeptide variant of human IKK-beta NBD (SEQ ID NO2) having A in the 1st position.) [NBD mutant]”, the “Binds to NEMO” value (NEMO) was “Yes”.

With “LDFSWL (Hexapeptide variant of human IKK-beta NBD (SEQ ID NO2) having F in the 3rd position.) [NBD mutant]” the “Binds to NEMO” value (NEMO) was “Yes”.

For “LDWSYL (Hexapeptide variant of human IKK-beta NBD (SEQ ID NO2) having Y in the 5th position.) [NBD mutant]”, the “Binds to NEMO” value (NEMO) was “No”.

“LDASAL (Hexapeptide variant of human IKK-beta NBD (SEQ ID NO2) having A in the 3rd and 5th positions.) [NBD mutant]” was tested, and the “Binds to NEMO” value (NEMO) was “No”.

With “LDWEWL (Hexapeptide variant of human IKK-beta NBD (SEQ ID NO2) having E in the 4th position.) [NBD mutant]” the “Binds to NEMO” value (NEMO) was “Yes”.

For LDSWSL (listed as Homo sapiens), the “Binds to NEMO” value (NEMO) was “Yes”.

For “LNWSWL (Hexapeptide variant of human IKK-beta NBD (SEQ ID NO2) having N in the 2nd position.) [NBD mutant]”, the “Binds to NEMO” value (NEMO) was “Yes”.

For “LDASWL (Hexapeptide variant of human IKK-beta NBD (SEQ ID NO2) having A in the 3rd position.) [NBD mutant]”, the “Binds to NEMO” value (NEMO) was “No”.

With “LDWSFL (Hexapeptide variant of human IKK-beta NBD (SEQ ID NO2) having F in the 5th position.) [NBD mutant]” the “Binds to NEMO” value (NEMO) was “Yes”.
